# Experimental data from publication PMC12790360, “Characterization of Non‐Specific Electrostatic Interactions of Cationic Peptides with DNA Origami and Their Functional Consequences” (Small Methods, 2025).
# Ends that are not written are not given here. Peptide text beside a SMILES is read from it.
# Test system: ssDNA
# Test: Centrifugation-based pull-down (solubility) assay
# Assay type: physicochemical
# Conditions: not given
# Procedure: Next, to quantify the propensity of these peptides to induce the aggregation, we developed a centrifugation‐based pull‐down assay (Figure 1e). In this assay, the cationic peptide pulls down the interacting BCN‐free ssDNA, forming large macromolecular aggregates that are sedimented as a pellet. The amount of ssDNA remaining in the soluble supernatant is then determined by measuring its absorbance at 260 nm.^[ [40], [41] ^] […] The soluble fraction for both peptides increased as the NaCl concentration was raised, confirming that the aggregation is driven by electrostatic interactions. […] To determine the soluble fraction of ssDNA after mixing with peptides, the mixtures were prepared as described above and then centrifuged at 16 000 × g for 5 min at room temperature. The supernatants were carefully collected, and the ssDNA concentration was measured by absorbance at 260 nm (OD260) on a NanoDrop spectrophotometer. The soluble fraction was calculated as OD260,supernatant/OD260,initial, where OD260,initial corresponds to the absorbance of the ssDNA reference solution (0.07 mM in 1× TE buffer without peptide or salt).
row,Molecule,Soluble ssDNA fraction in supernatant after centrifugation with peptide
1,ISQAVHAAHAEINEAGR [AP3],weaker aggregation tendencies compared with CP1 and CP2
2,EQLESIINFEKLTEWT [AP2],highly soluble across all conditions

# Same assay, conditions: BCN-free ssDNA 0.07 mM in 1x TE, tenfold molar excess peptide, varying NaCl, 16 000 x g 5 min room temperature, OD260 supernatant/initial, n = 3
row,Molecule,Soluble ssDNA fraction in supernatant after centrifugation with peptide
1,GGGSEEEYRSRKYSSWYVALKR [CP2],salt‐dependent solubility
2,CC[C@H](C)[C@H](NC(=O)[C@@H](NC(=O)[C@H](CC(C)C)NC(=O)[C@H](CO)NC(=O)[C@H](Cc1c[nH]cn1)NC(=O)[C@@H](NC(=O)[C@@H](NC(=O)CNC(=O)[C@H](Cc1c[nH]cn1)NC(=O)[C@H](CCCNC(=N)N)NC(=O)[C@H](CCCNC(=N)N)NC(=O)[C@H](CCSC)NC(=O)[C@H](CCC(=O)O)NC(=O)[C@H](Cc1ccc(O)cc1)NC(=O)[C@H](CCCCN)NC(=O)[C@H](CC(N)=O)NC(=O)CNC(=O)[C@@H]1CCCN1C(=O)[C@H](CS)NC(=O)[C@H](CC(C)C)NC(=O)[C@H](CCC(=O)O)NC(=O)[C@@H](NC(=O)CNC(=O)[C@H](CCC(=O)O)NC(=O)[C@@H](N)CCCNC(=N)N)C(C)C)[C@@H](C)O)[C@@H](C)O)C(C)C)C(=O)N[C@@H](Cc1c[nH]cn1)C(=O)N[C@@H](CC(=O)O)C(=O)O [NP1],weaker aggregation tendencies compared with CP1 and CP2
3,RGIDKRHWNSQ [CP3],weaker aggregation tendencies compared with CP1 and CP2
4,YRSRKYSSWYVALKR [CP1],salt‐dependent solubility
5,CC[C@H](C)[C@H](NC(=O)[C@H](CCCCN)NC(=O)[C@H](CCC(N)=O)NC(=O)[C@H](CC(N)=O)NC(=O)[C@H](CS)NC(=O)[C@H](C)NC(=O)[C@H](C)NC(=O)CNC(=O)[C@H](CCCNC(=N)N)NC(=O)[C@H](Cc1c[nH]c2ccccc12)NC(=O)CNC(=O)[C@@H]1CCCN1C(=O)[C@H](CCCNC(=N)N)NC(=O)[C@@H](N)CS)C(=O)N[C@@H](CC(C)C)C(=O)O [CP4] (H-CRPGWRGAACNQKIL-OH),highly soluble across all conditions
6,"PKKKR [CP5, brain-derived neurotrophic factor (BDNF) mimic peptide, cyclic, cationic, net charge +3]",weaker aggregation tendencies compared with CP1 and CP2
7,SSSHPIFHRGEFSV [NP5],weaker aggregation tendencies compared with CP1 and CP2
8,KLTWQELYQLKYKGI [CP6],weaker aggregation tendencies compared with CP1 and CP2
